Data as given in patent publication US8889670B2, “Heterocyclic compounds which modulate the CB2 receptor” (Boehringer Ingelheim International GmbH, priority 2009, dated 2014).
pEC50: −log10 of the molar value. Read-outs that look alike come from different tables or passages of the source.

Biological target: T1, human CB2R (Homo sapiens, UniProt P34972)
T1 construct: host or cells: CHO cells
Test: CB2R mediated modulation of cAMP synthesis (forskolin-stimulated cAMP, CHO cells expressing human CB2R)
Format: cell-based
Settings: for EC50: agonist EC50, inhibition of forskolin-stimulated cAMP synthesis, CHO cells expressing human CB2R, mean, read-out: CB2 CAMP @ EC50 nM (mean)
Protocol: B. CB2R Mediated Modulation of cAMP Synthesis:
Compounds of the invention were evaluated for their CB2 agonist or inverse agonistic activity in accordance with the following experimental method.
CHO cells expressing human CB2R (Euroscreen) were plated at a density of 5000 cells per well in 384 well plates and incubated overnight at 37° C. After removing the media, the cells were treated with test compounds diluted in stimulation buffer containing 1 mM IBMX, 0.25% BSA and 10 uM Forskolin. The assay was incubated for 30 minutes at 37° C. Cells were lysed and the cAMP concentration was measured using DiscoverX-XS cAMP kit, following the manufacturer's protocol. In this setting, agonists will decrease forskolin induced production of cAMP while inverse agonists will further increase forskolin induced production of cAMP. EC50 of agonists were calculated as follows. The maximal amount of cAMP produced by forskolin compared to the level of cAMP inhibited by 1 uM CP55940 is defined as 100%. […] Data was analyzed using a four-parameter logistic model. (Model 205 of XLfit 4.0).

T1 sequence (P34972 whole entry): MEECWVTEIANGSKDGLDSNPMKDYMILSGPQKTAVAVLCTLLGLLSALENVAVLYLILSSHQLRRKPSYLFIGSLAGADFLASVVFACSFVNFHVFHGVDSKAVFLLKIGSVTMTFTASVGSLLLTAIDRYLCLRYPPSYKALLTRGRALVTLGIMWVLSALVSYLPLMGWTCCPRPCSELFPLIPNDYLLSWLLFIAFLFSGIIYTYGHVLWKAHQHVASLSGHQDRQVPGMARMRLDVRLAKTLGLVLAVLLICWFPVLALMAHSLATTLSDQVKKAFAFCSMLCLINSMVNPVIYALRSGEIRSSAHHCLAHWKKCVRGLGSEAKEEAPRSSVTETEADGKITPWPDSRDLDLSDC

SMILES	pEC50	EC50 [nM]
CO[C@H]1CC[C@@H](C(=O)N2CCCC[C@H]2C(=O)Nc2cc(C(C)(C)C)on2)CC1	7.37	
CC(C)(C)c1cc(NC(=O)[C@@H]2CCCN(C(=O)C3CCC(F)(F)CC3)C2)no1 [(R)-1-(4,4-Difluoro-cyclohexanecarbonyl)-piperidine-3-carboxylic acid (5-tert-butyl-isoxazol-3-yl)-amide]	7.38	
O=C(Nc1nc2cc(Cl)ccc2[nH]1)[C@@H]1CCCCN1C(=O)N1CCS(=O)(=O)CC1 [(S)-1-(1,1-Dioxo-1λ^6-thiomorpholine-4-carbonyl)-piperidine-2-carboxylic acid (5-chloro-1H-benzimidazol-2-yl)-amide]	7.11	
O=C(Nc1nc(C2CCCCC2)cs1)[C@@H]1CCCCN1C1CCOCC1 [(S)-1-(Tetrahydro-pyran-4-yl)-piperidine-2-carboxylic acid (4-cyclohexyl-thiazol-2-yl)-amide]		65
CC(C)(C)c1cc(NC(=O)C2CCCN(C(=O)c3ccc(C(F)(F)F)cc3)C2)no1 (stereo not shown) [1-(4-Trifluoromethyl-benzoyl)-piperidine-3-carboxylic acid (5-tert-butyl-isoxazol-3-yl)-amide]	7.80	
CC(C)(C)c1nnc(NC(=O)[C@@H]2CCCCN2C(=O)N2CCS(=O)(=O)CC2)s1 [(S)-1-(1,1-Dioxo-1λ^6-thiomorpholine-4-carbonyl)-piperidine-2-carboxylic acid (5-tert-butyl-1,3,4-thiadiazol-2-yl)-amide]		53
CC(C)(C)c1cc(NC(=O)[C@@H]2CCCCN2C(=O)CN2CCC(F)CC2)no1 [(S)-1-[2-(4-Fluoro-piperidin-1-yl)-acetyl]-piperidine-2-carboxylic acid (5-tert-butyl-isoxazol-3-yl)-amide]	7.12	
CC(C)(C)c1cc(NC(=O)[C@@H]2CCCCN2C(=O)CN2CCC(F)(F)CC2)no1 [(S)-1-[2-(4,4-Difluoro-piperidin-1-yl)-acetyl]-piperidine-2-carboxylic acid (5-tert-butyl-isoxazol-3-yl)-amide]	7.47	
CC(C)(C)c1cc(NC(=O)[C@@H]2CCCCCN2C2CCOCC2)no1 [(S)-1-(Tetrahydro-pyran-4-yl)-azepane-2-carboxylic acid (5-tert-butyl-isoxazol-3-yl)-amide]	9.74	
O=C(Nc1nc(-c2ccc(F)cc2)cs1)[C@@H]1CCCCN1C(=O)N1CCS(=O)(=O)CC1 [(S)-1-(1,1-Dioxo-1λ^6-thiomorpholine-4-carbonyl)-piperidine-2-carboxylic acid [4-(4-fluoro-phenyl)-thiazol-2-yl]-amide]	7.42	
CC(C)(C)c1cc(NC(=O)[C@@H]2CCCCN2C(=O)CN2CCCC2)no1 [(S)-1-(2-Pyrrolidin-1-yl-acetyl)-piperidine-2-carboxylic acid (5-tert-butyl-isoxazol-3-yl)-amide]		431
CC(C)(C)c1cc(NC(=O)C2CCCN(C(=O)C3CCOCC3)C2)no1 (stereo not shown) [1-(Tetrahydro-pyran-4-carbonyl)-piperidine-3-carboxylic acid (5-tert-butyl-isoxazol-3-yl)-amide]		205
CC(C)(C)c1cc(NC(=O)[C@@H]2CCCC(=O)N2c2ccc(Cl)cc2)on1 [(S)-1-(4-Chloro-phenyl)-6-oxo-piperidine-2-carboxylic acid (3-tert-butyl-isoxazol-5-yl)-amide]		181
CC(C)(C)c1cc(NC(=O)[C@@H]2CCCCN2C(=O)CC2CCS(=O)(=O)C2)no1 (stereo partly drawn) [(S)-1-[2-(1,1-Dioxo-tetrahydro-1λ^6-thiophen-3-yl)-acetyl]-piperidine-2-carboxylic acid (5-tert-butyl-isoxazol-3-yl)-amide]	8.11	
CC(C)(C)c1cc(NC(=O)[C@H]2CCCCN2C(=O)C2CCC(F)(F)CC2)no1 [(R)-1-(4,4-Difluoro-cyclohexanecarbonyl)-piperidine-2-carboxylic acid (5-tert-butyl-isoxazol-3-yl)-amide]	7.19	
CC(C)(C)c1nnc(NC(=O)[C@@H]2CCCCN2C2CCC2)s1 [(S)-1-Cyclobutyl-piperidine-2-carboxylic acid (5-tert-butyl-1,3,4-thiadiazol-2-yl)-amide]		140
